From patent publication US20040171795A1, “Novel peptides” (priority 2000, published 2004) come the findings set out here.

One test deals with cell (Vero, T24 or A549 of Example 9; not given). The test can be described thus: Nucleic acid-introducing ability, luciferase-expressing plasmid (procedure of Example 9). Type of test: cell-based. As to conditions: class of fluorescent count per 1 mg of protein per 1 second; highest of peptide 1.25, 2.5, 5 μM; plasmid 1 μg/mL. The text has this: A cell line established from monkey kidney (Vero cell) and a human bladder cancer cell (T24 cell) purchased from American Type Culture Collection (ATCC) and human lung cancer cell (A549 cell) purchased from Dainippon Pharmaceutical were inoculated on a 24 well culture plate (manufactured by NALGEN NUNC) at 1×10^5 cells/well. Vero cell and A549 cell were cultivated in DMEM (manufactured by Life Technologies Oriental) supplemented with 10% fetal bovine serum (hereinafter referred to as FBS, manufactured by NICHIREI), and T24 cell was cultivated in McCoy's 5a (manufactured by Life Technologies Oriental) supplemented with 10% FBS in 5% CO2 atmosphere at 37° C. for 24 hours. After removing the medium, opti-MEM (manufactured by Life Technologies Oriental) prepared to have the concentration of the luciferase-expressing plasmid prepared in Example 7 of 1 μg/mL and the concentration of the peptide prepared in Example 1 of 1.25, 2.5, or 5 μM was added, and the cells were cultivated for 5 hours. Next, in the case of Vero cell and A549 cell, the culture medium was replaced with DMEM supplemented with 10% FBS, and in the case of T24 cell, the medium was replaced with McCoy's 5a supplemented with 10% FBS, and cultivation was continued in 5% CO2 atmosphere and at 37° C. for another 24 hours. The luciferase activity expressed in the cell was then measured by the method instructed in luciferase assay system (manufactured by Promega). To be more specific, the cells were washed with phosphate-buffered saline (hereinafter referred to as PBS, manufactured by SIGMA), and the cells were lyzed with Passive Lysis Buffer attached to the kit. 20 μL of this cell lysate and 100 μL of the Luciferase Assay Reagent II attached to the kit was added to a fluorescence-measuring plate (Microlite™ 1 plate, manufactured by Dynatech), and after mixing, fluorescence was measured for 1 second by using a multilabel counter (ARVO™ SY1420 MULTILABEL COUNTER, manufactured by Wallac Beltold.
Concentration of the protein in the cell lysate was measured by mixing 8 μL of the cell lysate and 200 μL of the protein assay solution (manufactured by Biorad) with 792 μL of ultrapure water in a disposable cuvette (UV fluorescent cuvette A204X, manufactured by Funakoshi), allowing the mixture to stand for 5 minutes at room temperature, and measuring the absorption at 595 nm with a spectrophotometer (DU640, manufactured by Beckman). Bovine serum albumin (BSA) was used for the standard protein. By using the thus obtained results, count per 1 second per 1 mg of protein of the cell lysate was calculated to thereby use the count as the luciferase activity, and the highest count in the three conditions of different peptide concentration was designated the gene-introducing ability of the peptide.
It is to be noted that the nucleic acid-introducing ability was classified as described below on the bases of the fluorescent count per 1 mg of protein per 1 second (cps/mg protein).
Turning to “SEQ ID NO: 9: peptide of SEQ ID NO:1 with one or two locations substituted in the 18 amino acid sequence (TRYLRIHPRSWVHQIALRTRYLRIHPRSWVHQIALRS; synthetic peptide using an automatic peptide synthesizer)”, the Nucleic acid-introducing ability is 3+ (1,000,000 to less than 10,000,000).

As to “SEQ ID NO: 12: peptide of SEQ ID NO:1 with one or two locations substituted in the 18 amino acid sequence (TRYLRIHPRSWVHQIALSLRYLRIHPRSWVHQIALSS; synthetic peptide using an automatic peptide synthesizer)”, the Nucleic acid-introducing ability is reported as 2+ (100,000 to less than 1,000,000).

On to “SEQ ID NO: 13: peptide of SEQ ID NO:1 with one or two locations substituted in the 18 amino acid sequence (TRYLRIHPRSLVHQIALRLRYLRIHPRSLVHQIALRS; synthetic peptide using an automatic peptide synthesizer)”, for which the Nucleic acid-introducing ability is 3+ (1,000,000 to less than 10,000,000).

Regarding “SEQ ID NO: 14: peptide of SEQ ID NO:1 with one or two locations substituted in the 18 amino acid sequence (TRYLRIHPRSWSHQIALRLRYLRIHPRSWSHQIALRS; synthetic peptide using an automatic peptide synthesizer)”, the Nucleic acid-introducing ability is reported as 3+ (1,000,000 to less than 10,000,000).

For the substance “SEQ ID NO: 18: peptide of SEQ ID NO:1 with one or two locations substituted in the 18 amino acid sequence (TRYLRIHPRSWLHQIALRTRYLRIHPRSWLHQIALRS; synthetic peptide using an automatic peptide synthesizer)”, the Nucleic acid-introducing ability is given as 4+ (10,000,000 or more).

As to “SEQ ID NO: 20: peptide of SEQ ID NO:1 with three locations substituted in the 18 amino acid sequence (TRYLRLHPRSWVHQLALRTRYLRLHPRSWVHQLALRS; synthetic peptide using an automatic peptide synthesizer)”, the Nucleic acid-introducing ability is 4+ (10,000,000 or more).

With “SEQ ID NO: 21: peptide of SEQ ID NO:1 with three locations substituted in the 18 amino acid sequence (TKYLKIHPKSWVHQIALRLKYLKIHPKSWVHQIALRS; synthetic peptide using an automatic peptide synthesizer)”, the Nucleic acid-introducing ability is recorded as 2+ (100,000 to less than 1,000,000).

Take “SEQ ID NO: 22: peptide of SEQ ID NO:1 with three locations substituted in the 18 amino acid sequence (TRRLRIHPRRWVHRIALRLRRLRIHPRRWVHRIALRS; synthetic peptide using an automatic peptide synthesizer)”: the Nucleic acid-introducing ability was 3+ (1,000,000 to less than 10,000,000).

Consider “SEQ ID NO: 24: deletion mutant of the peptide of SEQ ID NO:4 (TLRYLRIHPRSWLHQIALRS; synthetic peptide using an automatic peptide synthesizer)”, for which the Nucleic acid-introducing ability is given as 1+ (10,000 to less than 100,000).

The same test, now with this note: procedure of Example 9.
As for “SEQ ID NO:26: comparative peptide, SEQ ID NO:1 substituted so that it lacks the four sided 18 amino acid sequence (TRYLRIHPRSWVLQIALRLRYLRIHPRSWVLQIALRS; synthetic peptide using an automatic peptide synthesizer) [reference compound]”, the fluorescent count entry is listed as “less than 10,000 cps/mg protein”.

The same test, now with this note: procedure of Example 9, luciferase-expressing plasmid.
With “SEQ ID NO:26: comparative peptide, SEQ ID NO:1 substituted so that it lacks the four sided 18 amino acid sequence (TRYLRIHPRSWVLQIALRLRYLRIHPRSWVLQIALRS; synthetic peptide using an automatic peptide synthesizer) [reference compound]”, the “ability of introducing the nucleic acid into a cell” value is listed as “no nucleic acid-introducing ability was found”.

As for “SEQ ID NO: 24: deletion mutant of the peptide of SEQ ID NO:4 (TLRYLRIHPRSWLHQIALRS; synthetic peptide using an automatic peptide synthesizer)”, the “ability of introducing the nucleic acid into a cell” value is recorded as “had the ability of introducing the nucleic acid into a cell”.
